# Experimental data from ChEMBL document CHEMBL5724914, “Linking interpersonal differences in gut microbiota composition and drug biotransformation activity” (2024).
# Where a SMILES comes first, the peptide text is derived from it. [ ]: non-standard residue; d: D form. pGlu = O=C1CC[C@@H](C(=O)O)N1; Thz = O=C(O)[C@@H]1CSCN1
# Experiments:
# [1] = The drug is tested on Z-030 corresponding to mouse gut metagenome with ENA study accession number: PRJEB37062 and ENA sample accession number: ERS12561829 for biotransformation under anaerobic condition. The drug concentrations were measured over 9 timepoints collected between 0 and 24 hours of incubation by liquid-chromatography-coupled mass spectrometry (LC–MS); settings: 2 µM
# [2] = The drug is tested on Z-025 corresponding to rabbit gut metagenome with ENA study accession number: PRJEB37062 and ENA sample accession number: ERS12561824 for biotransformation under anaerobic condition. The drug concentrations were measured over 9 timepoints collected between 0 and 24 hours of incubation by liquid-chromatography-coupled mass spectrometry (LC–MS); settings: 2 µM
# [3] = The drug is tested on Z-008 corresponding to metagenome with ENA study accession number: PRJEB37062 and ENA sample accession number: ERS12561808 for biotransformation under anaerobic condition. The drug concentrations were measured over 9 timepoints collected between 0 and 24 hours of incubation by liquid-chromatography-coupled mass spectrometry (LC–MS); settings: 2 µM
# [4] = The drug is tested on Z-005 corresponding to metagenome with ENA study accession number: PRJEB37062 and ENA sample accession number: ERS12561805 for biotransformation under anaerobic condition. The drug concentrations were measured over 9 timepoints collected between 0 and 24 hours of incubation by liquid-chromatography-coupled mass spectrometry (LC–MS); settings: 2 µM
# [5] = The drug is tested on Z-004 corresponding to metagenome with ENA study accession number: PRJEB37062 and ENA sample accession number: ERS12561804 for biotransformation under anaerobic condition. The drug concentrations were measured over 9 timepoints collected between 0 and 24 hours of incubation by liquid-chromatography-coupled mass spectrometry (LC–MS); settings: 2 µM
# [6] = The drug is tested on WLS-310 corresponding to human gut metagenome with ENA study accession number: PRJEB37062 and ENA sample accession number: ERS12561785 for biotransformation under anaerobic condition. The drug concentrations were measured over 9 timepoints collected between 0 and 24 hours of incubation by liquid-chromatography-coupled mass spectrometry (LC–MS); settings: 2 µM
# [7] = The drug is tested on WLS-098 corresponding to human gut metagenome with ENA study accession number: PRJEB37062 and ENA sample accession number: ERS12561754 for biotransformation under anaerobic condition. The drug concentrations were measured over 9 timepoints collected between 0 and 24 hours of incubation by liquid-chromatography-coupled mass spectrometry (LC–MS); settings: 2 µM
# [8] = The drug is tested on WLS-090 corresponding to human gut metagenome with ENA study accession number: PRJEB37062 and ENA sample accession number: ERS12561753 for biotransformation under anaerobic condition. The drug concentrations were measured over 9 timepoints collected between 0 and 24 hours of incubation by liquid-chromatography-coupled mass spectrometry (LC–MS); settings: 2 µM
# [9] = The drug is tested on WLS-086 corresponding to human gut metagenome with ENA study accession number: PRJEB37062 and ENA sample accession number: ERS12561752 for biotransformation under anaerobic condition. The drug concentrations were measured over 9 timepoints collected between 0 and 24 hours of incubation by liquid-chromatography-coupled mass spectrometry (LC–MS); settings: 2 µM
# [10] = The drug is tested on WLS-039 corresponding to human gut metagenome with ENA study accession number: PRJEB37062 and ENA sample accession number: ERS12561746 for biotransformation under anaerobic condition. The drug concentrations were measured over 9 timepoints collected between 0 and 24 hours of incubation by liquid-chromatography-coupled mass spectrometry (LC–MS); settings: 2 µM
# [11] = The drug is tested on WLS-006 corresponding to human gut metagenome with ENA study accession number: PRJEB37062 and ENA sample accession number: ERS12561741 for biotransformation under anaerobic condition. The drug concentrations were measured over 9 timepoints collected between 0 and 24 hours of incubation by liquid-chromatography-coupled mass spectrometry (LC–MS); settings: 2 µM
# [12] = human gut metagenome, 24 h, 2 µM
# [13] = human gut metagenome, 24 h, 2 µM; remark: listed apart in the source
# [14] = human gut metagenome, 24 h, 2 µM; remark: listed apart in the source
# [15] = human gut metagenome, 24 h, 2 µM; remark: listed apart in the source
# [16] = human gut metagenome, 24 h, 2 µM; remark: listed apart in the source
# [17] = human gut metagenome, 24 h, 2 µM; remark: listed apart in the source
# [18] = human gut metagenome, 24 h, 2 µM; remark: listed apart in the source
# [19] = human gut metagenome, 24 h, 2 µM; remark: listed apart in the source
# [20] = The drug is tested on Z-016 corresponding to mouse gut metagenome with ENA study accession number: PRJEB37062 and ENA sample accession number: ERS12561815 for biotransformation under anaerobic condition. The drug concentrations were measured over 9 timepoints collected between 0 and 24 hours of incubation by liquid-chromatography-coupled mass spectrometry (LC–MS); settings: 2 µM
# Note: call rule not given here.
smiles,measurement,setting,value
CCCC1O[C@@H]2C[C@H]3[C@@H]4CCC5=CC(=O)C=C[C@]5(C)[C@H]4[C@@H](O)C[C@]3(C)[C@]2(C(=O)CO)O1 (stereo not given in full) [BUDESONIDE],Bacterial Biotransformation,[1],Compound NOT metabolized
same,Bacterial Biotransformation,[2],Compound NOT metabolized
same,Bacterial Biotransformation,[3],Compound metabolized
same,Bacterial Biotransformation,[4],Compound metabolized
same,Bacterial Biotransformation,[5],Compound NOT metabolized
same,Bacterial Biotransformation,[6],Compound metabolized
same,Bacterial Biotransformation,[7],Compound metabolized
same,Bacterial Biotransformation,[8],Compound metabolized
same,Bacterial Biotransformation,[9],Compound metabolized
same,Bacterial Biotransformation,[10],Compound metabolized
same,Bacterial Biotransformation,[11],Compound metabolized
same,Bacterial Biotransformation,[12],Compound metabolized
same,Bacterial Biotransformation,[13],Compound metabolized
same,Bacterial Biotransformation,[14],Compound metabolized
same,Bacterial Biotransformation,[15],Compound metabolized
same,Bacterial Biotransformation,[16],Compound metabolized
same,Bacterial Biotransformation,[17],Compound metabolized
same,Bacterial Biotransformation,[18],Compound metabolized
same,Bacterial Biotransformation,[19],Compound metabolized
CCCCCCOC(=O)/N=C(/N)c1ccc(NCc2nc3cc(C(=O)N(CCC(=O)OCC)c4ccccn4)ccc3n2C)cc1.CS(=O)(=O)O [DABIGATRAN ETEXILATE MESYLATE],Bacterial Biotransformation,[1],Compound NOT metabolized
same,Bacterial Biotransformation,[2],Compound NOT metabolized
same,Bacterial Biotransformation,[20],Compound NOT metabolized
same,Bacterial Biotransformation,[3],Compound NOT metabolized
same,Bacterial Biotransformation,[4],Compound NOT metabolized
same,Bacterial Biotransformation,[5],Compound NOT metabolized
same,Bacterial Biotransformation,[12],Compound NOT metabolized
same,Bacterial Biotransformation,[13],Compound NOT metabolized
same,Bacterial Biotransformation,[14],Compound NOT metabolized
same,Bacterial Biotransformation,[19],Compound NOT metabolized
C[C@@H]1C[C@H]2[C@@H]3CCC4=CC(=O)C=C[C@]4(C)[C@@]3(F)[C@@H](O)C[C@]2(C)[C@@]1(O)C(=O)CO [DEXAMETHASONE],Bacterial Biotransformation,[1],Compound NOT metabolized
same,Bacterial Biotransformation,[2],Compound NOT metabolized
same,Bacterial Biotransformation,[20],Compound NOT metabolized
same,Bacterial Biotransformation,[3],Compound NOT metabolized
same,Bacterial Biotransformation,[4],Compound metabolized
same,Bacterial Biotransformation,[5],Compound metabolized
same,Bacterial Biotransformation,[6],Compound metabolized
same,Bacterial Biotransformation,[7],Compound NOT metabolized
same,Bacterial Biotransformation,[9],Compound metabolized
same,Bacterial Biotransformation,[10],Compound NOT metabolized
same,Bacterial Biotransformation,[12],Compound NOT metabolized
same,Bacterial Biotransformation,[13],Compound NOT metabolized
same,Bacterial Biotransformation,[14],Compound NOT metabolized
same,Bacterial Biotransformation,[15],Compound NOT metabolized
same,Bacterial Biotransformation,[16],Compound NOT metabolized
same,Bacterial Biotransformation,[17],Compound NOT metabolized
same,Bacterial Biotransformation,[18],Compound NOT metabolized
same,Bacterial Biotransformation,[19],Compound NOT metabolized
c1ccc([C@H]2CN3CCSC3=N2)cc1 [LEVAMISOLE],Bacterial Biotransformation,[1],Compound NOT metabolized
same,Bacterial Biotransformation,[2],Compound NOT metabolized
same,Bacterial Biotransformation,[20],Compound NOT metabolized
same,Bacterial Biotransformation,[5],Compound NOT metabolized
same,Bacterial Biotransformation,[6],Compound metabolized
same,Bacterial Biotransformation,[10],Compound metabolized
same,Bacterial Biotransformation,[11],Compound metabolized
same,Bacterial Biotransformation,[12],Compound metabolized
same,Bacterial Biotransformation,[13],Compound metabolized
same,Bacterial Biotransformation,[14],Compound metabolized
same,Bacterial Biotransformation,[15],Compound metabolized
same,Bacterial Biotransformation,[16],Compound metabolized
same,Bacterial Biotransformation,[17],Compound metabolized
same,Bacterial Biotransformation,[18],Compound metabolized
same,Bacterial Biotransformation,[19],Compound metabolized
C#C[C@]1(O)CC[C@H]2[C@@H]3CCC4=CC(=O)CC[C@@H]4[C@H]3CC[C@@]21CC [LEVONORGESTREL],Bacterial Biotransformation,[1],Compound NOT metabolized
same,Bacterial Biotransformation,[2],Compound metabolized
same,Bacterial Biotransformation,[5],Compound metabolized
same,Bacterial Biotransformation,[6],Compound metabolized
same,Bacterial Biotransformation,[7],Compound metabolized
same,Bacterial Biotransformation,[8],Compound metabolized
same,Bacterial Biotransformation,[9],Compound metabolized
same,Bacterial Biotransformation,[10],Compound metabolized
same,Bacterial Biotransformation,[11],Compound metabolized
same,Bacterial Biotransformation,[12],Compound metabolized
same,Bacterial Biotransformation,[13],Compound metabolized
same,Bacterial Biotransformation,[14],Compound metabolized
same,Bacterial Biotransformation,[15],Compound metabolized
same,Bacterial Biotransformation,[16],Compound metabolized
same,Bacterial Biotransformation,[17],Compound metabolized
same,Bacterial Biotransformation,[18],Compound metabolized
same,Bacterial Biotransformation,[19],Compound metabolized
O=C1CC[C@@H](C(=O)N2CSC[C@H]2C(=O)O)N1 [PIDOTIMOD] ([pGlu]-[Thz]-OH),Bacterial Biotransformation,[1],Compound NOT metabolized
same,Bacterial Biotransformation,[2],Compound NOT metabolized
same,Bacterial Biotransformation,[20],Compound NOT metabolized
same,Bacterial Biotransformation,[4],Compound metabolized
same,Bacterial Biotransformation,[5],Compound NOT metabolized
same,Bacterial Biotransformation,[7],Compound NOT metabolized
same,Bacterial Biotransformation,[8],Compound NOT metabolized
same,Bacterial Biotransformation,[9],Compound NOT metabolized
same,Bacterial Biotransformation,[13],Compound NOT metabolized
same,Bacterial Biotransformation,[14],Compound NOT metabolized
same,Bacterial Biotransformation,[18],Compound NOT metabolized
same,Bacterial Biotransformation,[19],Compound NOT metabolized
COc1cc2nc(N3CCN(C(=O)c4ccco4)CC3)nc(N)c2cc1OC [PRAZOSIN],Bacterial Biotransformation,[1],Compound NOT metabolized
same,Bacterial Biotransformation,[2],Compound NOT metabolized
same,Bacterial Biotransformation,[20],Compound NOT metabolized
same,Bacterial Biotransformation,[3],Compound NOT metabolized
same,Bacterial Biotransformation,[4],Compound NOT metabolized
same,Bacterial Biotransformation,[5],Compound NOT metabolized
same,Bacterial Biotransformation,[6],Compound metabolized
same,Bacterial Biotransformation,[7],Compound metabolized
same,Bacterial Biotransformation,[8],Compound metabolized
same,Bacterial Biotransformation,[9],Compound metabolized
same,Bacterial Biotransformation,[10],Compound NOT metabolized
same,Bacterial Biotransformation,[11],Compound NOT metabolized
same,Bacterial Biotransformation,[12],Compound NOT metabolized
same,Bacterial Biotransformation,[13],Compound NOT metabolized
same,Bacterial Biotransformation,[14],Compound NOT metabolized
same,Bacterial Biotransformation,[15],Compound metabolized
same,Bacterial Biotransformation,[16],Compound NOT metabolized
same,Bacterial Biotransformation,[17],Compound NOT metabolized
same,Bacterial Biotransformation,[18],Compound NOT metabolized
